Columns and labels:
Assay in all cases: cells
Set-up in all cases: species or system panel of human cancer cell lines; Eurofins OncoPanel proliferation; nuclei count by high-content fluorescence imaging, 10-point dose response
BCP-1 = settings: BCP-1, 72 h, cell count, 3 days
Protocol: (§1) OncoPanel cancer cell proliferation assay was performed by Eurofins Panlabs, Inc. (Missouri, USA). Cancer cells were grown in RPMI 1640, 10% FBS, 2 mM L-alanyl-L-glutamine, 1 mM Na pyruvate, or a special medium. Cells were seeded into 384-well plates and incubated in a humidified atmosphere of 5% CO2 at 37°C. Compounds were added the day following cell seeding. At the same time, a time zero untreated cell plate was generated. After a 3-day incubation period, cells were fixed and stained to allow fluorescence imaging of nuclei. Levosimendan was serially diluted in half-log steps from 100 μM and assayed over 10 concentrations with a maximum assay concentration of 0.1% DMSO. Automated fluorescence microscopy was carried out using a Molecular Devices ImageXpress Micro XL high-content imager, and images were collected with a 4X objective. 16-bit TIFF images were acquired and analyzed with MetaXpress 5.1.0.41 software. Cell count EC50 is the test concentration at the curve inflection point (parameter C), or half the effective response. IC50 is the test compound concentration at 50% of the maximum possible response. GI50 is the concentration needed to reduce the observed growth by half (midway between the relative cell count at the curve maximum and at the time of compound addition). Activity area is an estimate of the integrated area above the response curve. Activity area values range from 0–10, where a value of zero indicates no inhibition of proliferation at all concentrations, and a value of 10 indicates complete inhibition of proliferation at all concentrations.

RPMI 6666 = settings: Homo sapiens, RPMI-6666, 72 h, cell count, 3 days
Protocol: as §1

CRO-AP2 = settings: Homo sapiens, CRO-AP2, 72 h, cell count, 3 days
Protocol: as §1

NCI-H295R = settings: Homo sapiens, NCI-H295R, 72 h, cell count, 3 days
Protocol: as §1

Hs 821.T = settings: 72 h, cell count, 3 days
Protocol: as §1

RS4;11 = settings: Homo sapiens, RS4-11, 72 h, cell count, 3 days
Protocol: as §1

SCC-9 = settings: Homo sapiens, SCC-9, 72 h, cell count, 3 days
Protocol: as §1

Hs 852.T = settings: 72 h, cell count, 3 days
Protocol: as §1

HEL-92-1-7 = settings: Homo sapiens, HEL 92.1.7, 72 h, cell count, 3 days
Protocol: as §1

Y79 = settings: Homo sapiens, Y79, 72 h, cell count, 3 days
Protocol: as §1

MEG01 = settings: Homo sapiens, MEG-01, 72 h, cell count, 3 days
Protocol: as §1

NCIH441 = settings: Homo sapiens, NCI-H441, 72 h, cell count, 3 days
Protocol: as §1

SK-PN-DW = settings: 72 h, cell count, 3 days
Protocol: as §1

Detroit 562 = settings: Homo sapiens, Detroit 562, 72 h, cell count, 3 days
Protocol: as §1

[1] = 50% of maximum possible response

IC50 (NCI-H295R; [1]): 91.6 µM
GI50 (NCI-H295R; corrected for time zero): 57.1 µM
EC50 (NCI-H295R; curve inflection point): 91.6 µM
IC50 (RS4;11; [1]): 29.7 µM
GI50 (RS4;11; corrected for time zero): 19.6 µM
EC50 (RS4;11; curve inflection point): 25.4 µM
IC50 (SK-PN-DW; [1]): 57.4 µM
GI50 (SK-PN-DW; corrected for time zero): 43.3 µM
EC50 (SK-PN-DW; curve inflection point): 57.4 µM
SMILES: C[C@@H]1CC(=O)NN=C1c1ccc(NN=C(C#N)C#N)cc1 [levosimendan]
IC50 (BCP-1; [1]): 12.6 µM
GI50 (BCP-1; corrected for time zero): 8.13 µM
EC50 (BCP-1; curve inflection point): 12.6 µM
IC50 (RPMI 6666; [1]): 17.2 µM
GI50 (RPMI 6666; corrected for time zero): 11 µM
EC50 (RPMI 6666; curve inflection point): 17.2 µM
IC50 (CRO-AP2; [1]): 10.3 µM
GI50 (CRO-AP2; corrected for time zero): 8.29 µM
EC50 (CRO-AP2; curve inflection point): 9.97 µM
IC50 (Hs 821.T; [1]): > 100 µM
GI50 (Hs 821.T; corrected for time zero): > 100 µM
EC50 (Hs 821.T; curve inflection point): > 100 µM
IC50 (SCC-9; [1]): 33.6 µM
GI50 (SCC-9; corrected for time zero): 26.3 µM
EC50 (SCC-9; curve inflection point): 33.6 µM
IC50 (Hs 852.T; [1]): 82.2 µM
GI50 (Hs 852.T; corrected for time zero): 25 µM
EC50 (Hs 852.T; curve inflection point): 82.2 µM
IC50 (HEL-92-1-7; [1]): 21.8 µM
GI50 (HEL-92-1-7; corrected for time zero): 17.9 µM
EC50 (HEL-92-1-7; curve inflection point): 21.8 µM
IC50 (Y79; [1]): 36.2 µM
GI50 (Y79; corrected for time zero): 16 µM
EC50 (Y79; curve inflection point): 32.8 µM
IC50 (MEG01; [1]): 83.2 µM
GI50 (MEG01; corrected for time zero): 58.5 µM
EC50 (MEG01; curve inflection point): 83.2 µM
IC50 (NCIH441; [1]): > 100 µM
GI50 (NCIH441; corrected for time zero): 31.9 µM
EC50 (NCIH441; curve inflection point): > 100 µM
IC50 (Detroit 562; [1]): 50.9 µM
GI50 (Detroit 562; corrected for time zero): 28.4 µM
EC50 (Detroit 562; curve inflection point): 50.9 µM

— article PMC6576746, “Rational discovery of dual-indication multi-target PDE/Kinase inhibitor for precision anti-cancer therapy using structural systems pharmacology” (PLoS Computational Biology, 2019)
